Patent US20180179574A1, “SYSTEMS AND METHODS FOR CHARACTERIZATION OF […]” (The University of Chicago, priority 2015, published 2018)

Columns and labels:
HepG2 = experiment: Lipase assay with live cells (HepG2), fluorogenic TG substrate; type: cell-based; settings: HepG2 cells washed with heparin
Method: FIG. 2. The lipase assay is non-toxic and detects enzyme activity with live cells. The removal of the reaction mix from the cells (HepG2) stops substrate hydrolysis but is reinitiated once added back to the same cells (A).
Experiments were conducted during development of embodiments of the present invention using an in vitro assay that utilizes bovine milk LpL (SIGMA) diluted to ˜120 ng/ml in Tris-HCl, 0.15M NaCl (TBS), 1%(w/v) BSA, 0.015%(w/v) Zwittergent 3-14, pH 7.8+1 μM to 25 μM ENZCHEK substrate, prepared in black polypropylene microplates. In some embodiments, the lipase reaction is performed at room temperature or 37° C. for 10 min to 60 min. Detection of product is performed with a fluorescent plate reader using excitation/emission wavelengths of 482 nm and 515 nm. The assay is sensitive to fmol/L of LpL (130% gain on reader) (FIG. 6C) and product accumulation increases linearly with increasing enzyme concentrations (FIG. 1A). The absolute product concentration is proportional to the relative fluorescence units (RFU) and can be calculated using BODIPY-C12 fatty acid (D3823, Life Technologies Inc.) as a standard and allows the determination of reaction rates (i.e. ng/ml/min) and Michaelis-Menten kinetic parameters. […] Furthermore, the mild nature of the assay formulation allows LpL activity to be determined with live cells in cell culture or isolated cells (FIG. 2).

Leukocyte-LpL = molecular target: T1, Leukocyte-LpL (Homo sapiens, UniProt P06858); experiment: Leukocyte LpL hydrolytic potential / lipase response to stimulation assay (fluorogenic ENZCHEK TG substrate); type: cell-based; settings: leukocytes washed with heparin removing surface LpL
T1 construct: analyze the activity of endogenous cell-associated LpL from a blood sample; host or cells: primary leukocytes (buffy coat) from fresh whole blood
T1 sequence (P06858 28-475): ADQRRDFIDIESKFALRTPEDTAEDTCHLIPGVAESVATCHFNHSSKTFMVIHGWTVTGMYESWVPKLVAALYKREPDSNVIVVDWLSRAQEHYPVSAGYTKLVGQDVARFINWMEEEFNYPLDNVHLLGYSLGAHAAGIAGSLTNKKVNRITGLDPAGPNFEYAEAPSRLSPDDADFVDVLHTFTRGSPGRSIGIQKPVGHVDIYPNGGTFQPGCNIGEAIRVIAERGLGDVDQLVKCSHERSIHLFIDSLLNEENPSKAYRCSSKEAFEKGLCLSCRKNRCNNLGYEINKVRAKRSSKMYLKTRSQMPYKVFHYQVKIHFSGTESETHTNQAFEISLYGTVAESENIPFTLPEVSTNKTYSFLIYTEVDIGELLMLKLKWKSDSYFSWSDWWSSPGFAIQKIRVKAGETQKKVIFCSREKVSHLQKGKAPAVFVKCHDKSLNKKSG
Method: FIG. 6. Leukocyte-LpL activity is detectible and responsive to C-II51-79 and AV199-232 peptide stimulation. Leukocytes (buffy coat) was collected by centrifugation of fresh whole blood from healthy donors (Zen Bio Inc.), rinsed and then incubated with LpL reaction mix (A, B). Leukocytes were also incubated with […] CII51-79 and/or AV199-232 (A). […] Increasing fluorescent plate reader gain can increase sensitivity to low femto molar range (C).
Experiments were conducted during development of embodiments of the present invention using an in vitro assay that utilizes bovine milk LpL (SIGMA) diluted to ˜120 ng/ml in Tris-HCl, 0.15M NaCl (TBS), 1%(w/v) BSA, 0.015%(w/v) Zwittergent 3-14, pH 7.8+1 μM to 25 μM ENZCHEK substrate, prepared in black polypropylene microplates. […] Detection of product is performed with a fluorescent plate reader using excitation/emission wavelengths of 482 nm and 515 nm. The assay is sensitive to fmol/L of LpL (130% gain on reader) (FIG. 6C) and product accumulation increases linearly with increasing enzyme concentrations (FIG. 1A). The absolute product concentration is proportional to the relative fluorescence units (RFU) and can be calculated using BODIPY-C12 fatty acid (D3823, Life Technologies Inc.) as a standard and allows the determination of reaction rates (i.e. ng/ml/min) and Michaelis-Menten kinetic parameters. […]

heparin
Substrate hydrolysis by live cells after washing cells with heparin (HepG2): inhibits substrate hydrolysis | Leukocyte substrate hydrolysis after washing cells with heparin (Leukocyte-LpL): substrate hydrolysis was lost
